Data from patent US11897910B2, “Mito-honokiol compounds and methods of synthesis and use thereof” (The Medical College of Wisconsin, Inc., priority 2015, dated 2024).
Blank lines part the entries; values can stand above or below the compound they belong to.

Tests used:
[1] = test system: human MiaPaCa-2 pancreatic cancer cells; assay: Antiproliferative effect on pancreatic cancer cells; format: cell-based
Text: FIG. 3. Comparison of anti-proliferative effects of honokiol (HNK), mito-honokiol (Mito-HNK) and bis-mito-honokiol (Mito-bis-HNK) on human MiaPaCa-2 pancreatic cancer cells.
FIG. 15A-15F. Effects of mito-honokiol alone or in combination with 2-deoxyglucose on pancreatic cells. […] Further, the combining the mito-honokiols of the present invention with antiglycolytic agents (e.g. 2-deoxyglucose) reduced the rate of proliferation of pancreatic cancer cells than either treatment alone, as shown for a number of different concentrations in FIG. 15C-F.
The inventors also compared the antiproliferative activity of mito-honokiol analogs to honokiol using human MiaPaCa-2 pancreatic cancer cells (FIG. 3).

[2] = test system: MiaPaCa-2 cells; assay: Intracellular ATP, combination with 2-deoxyglucose; format: cell-based, human; settings: combined with 2-deoxyglucose (2-DG)
Text: FIG. 4. Synergistic depletion of intracellular ATP in MiaPaCa-2 cells by combination of 2-deoxyglucose (2-DG) and honokiol (HNK) and mito-honokiol (Mito-HNK). The data were obtained on the human pancreatic cancer MiaPaCa-2 cell line. […] In one embodiment, the mito-honokiols of the present invention may be also used in combination with standard-of-care chemotherapeutics or with ionizing radiation to treat resistant cancer cells.

[3] = test system: STAT3 phosphorylation; assay: PathScan RTK signaling array; format: cell-based; settings: DMS-273 cells; HNK 10 μM and 20 μM, Mito-HNK 0.2 μM, six hours
Protocol: H2030-BrM3 and DMS-273 cells treated with control DMSO and various doses of HNK and Mito-HNK for four hours were lysed with 200 μl lysis buffer containing proteinase inhibitor cocktails (Cell Signaling Technology, Danvers, MA), sheared 10 times with a 28-gauge needle, spun at 16,000×g for 30 min, and normalized by protein concentration as determined by the Bradford method. Normalized lysate was resolved in a PathScan RTK Signaling Array, and the signaling array was examined by a Li-COR Odyssey infrared imaging system (Li-COR Biosciences-Biotechnology, Lincoln, NE).
For the RTK signaling array, we treated DMS-273 cells with two different doses of HNK (10 μM and 20 μM) and Mito-HNK (0.2 μM) for six hours.

[4] = test system: DMS-273 cells; assay: Cell proliferation assay (IncuCyte); format: cell-based; settings: Homo sapiens
Protocol: (§1) For the cell proliferation assay, cells were seeded onto 96-well tissue culture plates at 2-3,000 cells per well. Twenty-four hours after seeding, treatment group cells were exposed to various concentrations of HNK for 48 hours, and control group cells received fresh medium. The plate was incubated at 37° C. and 5% CO2 and monitored in IncuCyte (Essen Bioscience, Ann Arbor, MI). Data analysis was conducted using IncuCyte […] software. All assays were performed in triplicate. Next, we examined the anticancer effects of Mito-HNK compared to HNK in vitro. Various doses of HNK and Mito-HNK were treated in either H2030-BrM3 or DMS-273 cells, and the antiproliferative effects were monitored with an IncuCyte Live-Cell Imaging Analyzer. […] Furthermore, we examined the anti-invasive effects of Mito-HNK in H2030-BrM3 and DMS-273 cells via a Boyden chamber invasion assay. Both cells were treated with vehicle control (DMSO), HNK (20 μM), and Mito-HNK (0.2 μM) for 36 hours, and invaded cells were determined.

[5] = test system: H2030-BrM3 cells; assay: Cell proliferation assay (IncuCyte); format: cell-based; settings: Homo sapiens
Protocol: as §1

[6] = test system: H2030-BrM3 and DMS-273 orthotopic lung tumors; assay: Orthotopic lung cancer model; format: in vivo, mice
[7] = test system: UACC-62-WT cells; assay: Hydroethidine oxidation products by HPLC; format: cell-based, human; settings: 24 h preincubation
Protocol: (§2) Mito-magnolol stimulates ROS and causes oxidation of mitochondrial antioxidative enzyme in BRAFV600E inhibitor-resistant melanoma cells. UACC-62-WT and UACC-62-R cells were preincubated with Mito-magnolol for 24 h and then treated with hydroethidine. Cell lysates were analyzed by HPLC and the superoxide-specific hydroxylation product (2-OH-E^+) and other two-electron and one-electron oxidation products (E^+ and E^+-E^+) were determined.
(§3) Hydroethidine (HE) was used to measure intracellular O2^⋅− formation. 2-Hydroxyethidium (2-OH-E^+), the diagnostic marker product of O2^⋅−/HE reaction (FIG. 23A) increased in Mito-MGN treated melanoma cells (FIG. 23B). In addition, Mito-MGN induced the iron or peroxidase-dependent oxidation of HE as evidenced by enhanced intracellular formation of E^+-E^+ and E^+ (FIG. 23B).

[8] = test system: UACC-62-R cells; assay: Hydroethidine oxidation products by HPLC; format: cell-based, human; settings: 24 h preincubation
Protocol: as §2, §3

[9] = Serum toxicity markers (pilot study); settings: three weekly treatment at 5 mg/kg
[10] = test system: mitochondrial Prx3 in resistant melanoma cells; assay: Peroxiredoxin redox status (Western blot); format: cell-based, human; settings: cytosolic Prx1 largely unaffected
Text: (§4) (A) Western blot show the redox status of cytosolic (Prx1) and mitochondrial (Prx3) peroxiredoxins. (B) Quantitative analysis of the extent of Prx1 and Prx3 oxidation. Values are mean±SD, n=3. **, P≤0.01. (C) Scheme showing the pathways controlling the redox state and covalent dimer formation of peroxiredoxins in cells.
(§5) Peroxiredoxins (Prx) are abundant endogenous intracellular thiol peroxidases that act as compartment-specific sensors of hydrogen peroxide (H2O2) in mitochondrial (Prx3) and cytosolic (Prx1) compartments (62-64). Prxs rapidly react with H2O2 (k=10^6-10^7 M^−1 s^−1) (64, 65). Prx3 accounts for nearly 90% of mitochondrial peroxidase activity (64, 66).

[11] = test system: mitochondrial Prx3 in WT melanoma cells; assay: Peroxiredoxin redox status (Western blot); format: cell-based, human; settings: cytosolic Prx1 largely unaffected
Text: as §4, §5

[12] = test system: B16.F10 cells; assay: B16.F10 orthotopic melanoma model; format: in vivo, mice
Protocol: (A) Kaplan-Maier survival curves of B16-F10 engrafted mice treated on days 7, 9, 11, 14, 16, & 18 with Mito-MGN [1 mg] or with α-PD-L1 [250 μg]. (B) Tumor size (mm2) over time. (C) Tumor volume measured on day 19. Values are mean±SD, n=4 mice/group. ***, P≤0.001.
T cells were detected using CD3 immunostaining (brown). Arrowheads highlight CD3+ T cells in melanoma (blue cells). Data representative of 4 separate mice.

[13] = test system: UACC-62-WT cells; assay: Melanoma cell proliferation monitored in real time; format: cell-based, human
Protocol: (§6) UACC-62-WT cells (A) or UACC-62-R cells (B) were treated with PLX4720 as indicated. Cell proliferation was monitored in real time with the continuous presence of indicated treatments until the end of each experiment. (C) Representative images shown are the segmentation of phase contrast images (segmentation mask illustrated in black). (D) The cell confluence (as control groups reach 95% confluency) is plotted against concentration of PLX4720 inhibitor. Dashed lines represent the fitting curves used to determine the IC50 values. […] (F) The effect of Mito-MGN (0.2 μM) on mitochondrial complex I and II activities (oxygen consumption rate, OCR) is shown for wild-type (red) and resistant UACC-62 (blue) melanoma cells.
(§7) UACC-62-WT cells (A) or UACC-62-R cells (B) were treated with Mito-MGN as indicated. Cell proliferation was monitored in real time with the continuous presence of indicated treatments until the end of each experiment. (C) Representative images shown are the segmentation of phase contrast images (segmentation mask illustrated in black). (D) The cell confluence (as control groups reach 95% confluency) is plotted against Mito-MGN concentration. Dashed lines represent the fitting curves used to determine the IC50 values.
(§8) To establish PLX4720-resistant melanoma cell line, UACC-62 cells (ATCC) were continuously exposed to increasing concentrations of PLX4720 (1-20 μM) for six months until the logarithmic growth resumed. PLX4720-containing media were replaced twice a week. Resistant cell line (UACC-62R) was maintained in routine culture in the presence of 20 μM PLX4720. FIGS. 21A and 21B show the effect of PLX4720 on proliferation of UACC-62-WT and UACC-62-R cells.
(§9) FIGS. 22A and 22B show the effect of Mito-magnolol on proliferation of UACC-62-WT and UACC-62-R cells. Cell proliferation was monitored in real time for cells incubated continuously under treatment conditions as shown.

[14] = test system: UACC-62-R cells; assay: Melanoma cell proliferation monitored in real time; format: cell-based, human; settings: 0.1-0.3 μM, six days
Protocol: as §6, §7, §8, §9

[15] = test system: UACC-62 cells; assay: TMRE flow cytometry, mitochondrial depolarization; format: cell-based, human; settings: pilot experiments
Text: (A) Representative TMRE quantification using flow cytometry. (B) Mean fluorescence intensity (MFI) of TMRE in Mito-MGN-treated and vehicle (V)-treated UACC-62-WT cells. Values are mean±SEM, n=3
Not to be bound by any theory, but it is believed that Mito-MGN-induced ROS halts melanoma proliferation through induction of mitophagy. ROS at high μM concentrations have detrimental effects on lipids, proteins, and DNA, whereas at nM concentrations, ROS exerts potent signaling effects (11, 41, 65). We postulate that OXPHOS inhibition by Mito-MGN increases ROS levels, which in turn stimulates mitophagy. To test this hypothesis, we will use an iterative approach to first measure mitochondrial membrane damage, followed by the parallel examination of molecular markers and phagolysome activation needed for mitophagy. Tetramethylrhodamine ethyl ester (TMRE) is retained in metabolically active mitochondria and released into the cytosol and extracellular space of cells with depolarized/damaged mitochondria (67), as illustrated in our recent paper using related mitochondria-targeted agents (12).

[16] = test system: UACC-62-WT cells; assay: UACC-62-WT orthotopic melanoma xenograft; format: in vivo, mice; settings: 1 mg injected intratumorally in 50 μL
Protocol: (A) Representative μCT images on day 58 from UACC-62-WT xenographed (T=tumor) mice treated twice a week with vehicle (left) or 1 mg Mito-MGN (right). Data representative of 2 mice per group. (B) Quantification of tumor volume (mm^3) measured using calipers ex vivo on day 58.
The efficacy of Mito-MGN in a murine model of melanoma was tested using cells sensitive and resistant to BRAF inhibitors as tools to probe the anti-tumor effects of targeted OXPHOS inhibitors.

[17] = test system: mitochondrial complex I in UACC-62-WT cells; assay: Seahorse XF96 bioenergetics (OCR, complex I-mediated respiration, glycolysis); format: cell-based, human
Protocol: (§10) Melanoma cells harboring BRAF oncogenic mutations use aerobic glycolysis (the Warburg effect) to meet their energy demands. […] One reason for the acquired resistance to PLX4720 is the adaptive change from glycolysis to OXPHOS.
(§11) We used a Seahorse XF96 Analyzer to measure OCR, a readout of mitochondrial respiration, and […], a surrogate marker for glycolysis, in real time. OCR is measured after adding substrates and inhibitors of complexes I-IV. In preliminary studies, Mito-MGN inhibited complex I activity in both WT and resistant cells (FIG. 21F).

[18] = biological target: mitochondrial complex I in UACC-62-R cells; assay: as above; format: cell-based, human
Protocol: as §10, §11

[19] = 1 mg/tumor Mito-MGN or 250 μg anti-PD-L1 antibody

Structure (SMILES): C=CCc1ccc(OCCCCCCCCCC[P+](c2ccccc2)(c2ccccc2)c2ccccc2)c(-c2ccc(OCCCCCCCCCC[P+](c3ccccc3)(c3ccccc3)c3ccccc3)c(CC=C)c2)c1 [Bis-Mito-HNK]
- antiproliferative potency compared with honokiol ([1]; MiaPaCa-2): more potent than honokiol

- IC50 [5]: 27 µM
Structure (SMILES): C=CCc1ccc(O)c(-c2ccc(O)c(CC=C)c2)c1 [HNK, honokiol]
- cellular ATP levels [2]: synergize with 2-deoxyglucose (2-DG) in decreasing cellular ATP levels
- STAT3 phosphorylation levels [3]: dramatically decreased
- IC50 [4]: 30 µM
- tumor growth ([6]; 7.5 μmol/kg oral gavage five times per week for three weeks): did not significantly reduce tumor growth
- observable side effects ([6]; H2030-BrM3 and DMS-273 orthotopic models): did not show any observable side effects

Structure (SMILES): C=CCc1ccc(O)c(-c2cc(CC=C)ccc2OC[P+](c2ccccc2)(c2ccccc2)c2ccccc2)c1.[Br-] [Mito-MGN]
- HE oxidation products 2-OH-E+, E+ and E+-E+ [7]: significantly higher amount
- HE oxidation products 2-OH-E+, E+ and E+-E+ [8]: significantly higher amount
- BUN ([9]; serum, day 19, Mean ± SE, n = 4-5, ref (12-28)): 24.5 ± 1.9 mg/dL
- ALT ([9]; serum, day 19, Mean ± SE, n = 4-5, ref (22-77)): 58.7 ± 12.7 IU/L
- AP ([9]; serum, day 19, Mean ± SE, n = 4-5, ref (45-222)): 36.7 ± 10.8 IU/L
- liver or kidney toxicity [9]: little liver or kidney toxicity
- oxidation of mitochondrial Prx3 [10]: stimulated the oxidation of mitochondrial Prx3
- oxidation of mitochondrial Prx3 [11]: stimulated the oxidation of mitochondrial Prx3
- melanoma growth in vivo [12, 19]: decreased melanoma growth
- survival [12, 19]: increased survival
- T cell levels in excised tumors (CD3 immunostaining) ([12]; compared to vehicle control tumors): increased T cell levels
- efficiency in abrogating tumor progression and size ([12]; compared with anti-PD-L1): equal to anti-PD-L1
- sensitivity of proliferation ([13]; 0.1-0.3 μM, six days): exquisitely sensitive
- sensitivity of proliferation [14]: exquisitely sensitive
- mitochondrial membrane potential (TMRE) [15]: dose dependently decreases mitochondrial membrane potential
- tumor size (μCT in vivo and ex vivo excised tumors) [16]: potently reduced tumor size
- OXPHOS (OCR) ([17]; WT cells): significantly inhibiting OXPHOS
- glycolysis (SCAR/PPR) ([17]; WT cells): minimally affected glycolysis
- IC50 ([17]; read-out: IC50 to inhibit complex I-mediated respiration, 1 h treatment, UACC-62-WT): 0.35 µM
- IC50 ([18]; read-out: IC50 to inhibit complex I-mediated respiration, 1 h treatment, UACC-62-R): 0.66 µM
- OXPHOS (OCR) ([18]; resistant cells): significantly inhibiting OXPHOS
- glycolysis (SCAR/PPR) ([18]; resistant cells): minimally affected glycolysis
- antiproliferative effects ([1]; 1 μM, FIG. 15B): exhibit antiproliferative effects

Structure (SMILES): CCCS(=O)(=O)Nc1ccc(F)c(C(=O)c2c[nH]c3ncc(Cl)cc23)c1F [PLX4720, reference compound]
- cells after six days of treatment (phase contrast images) ([13]; 10 μM, WT versus resistant cells): considerably fewer WT cells compared to resistant cells
